# Data reported in ChEMBL document CHEMBL1146955, “A novel series of arylsulfonylthiophene-2-carboxamidine inhibitors of the complement component C1s” (Bioorg Med Chem Lett, 2006).
# Target: T1, Complement C1s subcomponent (Homo sapiens, UniProt P09871)
# T1 sequence (P09871 whole entry): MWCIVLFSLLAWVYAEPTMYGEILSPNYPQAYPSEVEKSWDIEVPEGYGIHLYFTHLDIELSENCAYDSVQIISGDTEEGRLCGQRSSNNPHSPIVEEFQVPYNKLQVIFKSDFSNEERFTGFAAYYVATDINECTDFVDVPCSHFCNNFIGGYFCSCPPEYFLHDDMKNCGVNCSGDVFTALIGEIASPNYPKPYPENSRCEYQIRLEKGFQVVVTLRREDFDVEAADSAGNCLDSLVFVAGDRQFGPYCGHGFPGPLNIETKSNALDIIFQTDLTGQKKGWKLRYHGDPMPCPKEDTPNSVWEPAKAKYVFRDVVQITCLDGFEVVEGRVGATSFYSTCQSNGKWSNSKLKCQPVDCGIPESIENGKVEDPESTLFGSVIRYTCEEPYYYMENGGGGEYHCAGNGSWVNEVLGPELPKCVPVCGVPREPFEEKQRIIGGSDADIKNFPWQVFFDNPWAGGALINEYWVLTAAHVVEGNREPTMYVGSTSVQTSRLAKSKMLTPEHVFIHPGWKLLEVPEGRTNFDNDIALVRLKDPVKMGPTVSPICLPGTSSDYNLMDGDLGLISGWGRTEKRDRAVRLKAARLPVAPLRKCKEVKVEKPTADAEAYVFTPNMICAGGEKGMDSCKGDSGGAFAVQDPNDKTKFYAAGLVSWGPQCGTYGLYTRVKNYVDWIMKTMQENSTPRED
# Test: Inhibition of C1S
row,SMILES,Ki [nM]
1,C=CCn1cnc2cc(S(=O)(=O)c3cc(C(=N)N)sc3SC)cc(Br)c21,70
2,CSc1sc(C(=N)N)cc1S(=O)(=O)Cc1ccccc1,2000
3,CSc1sc(C(=N)N)cc1S(=O)(=O)c1cc(Br)c2c(c1)ncn2[C@@H](C)c1ccccc1,330
4,C=CCn1cnc2c(Br)cc(S(=O)(=O)c3cc(C(=N)N)sc3SC)cc21,210
5,CSc1sc(C(=N)N)cc1S(=O)(=O)c1ccccn1,2290
6,CSc1sc(C(=N)N)cc1S(=O)(=O)c1ccc2ncn(Cc3ccccc3)c2c1,420
7,CSc1sc(C(=N)N)cc1S(=O)(=O)c1cc(Br)c2c(c1)ncn2C,400
8,CSc1sc(C(=N)N)cc1S(=O)(=O)c1ccc2ccccc2c1,410
9,CSc1sc(C(=N)N)cc1S(=O)(=O)c1cc(Br)c2c(c1)ncn2Cc1c(Cl)cccc1Cl,20
10,CSc1sc(C(=N)N)cc1S(=O)(=O)c1cc(Br)c2ncn(Cc3c(Cl)cccc3Cl)c2c1,160
11,CSc1sc(C(=N)N)cc1S(=O)(=O)c1cc(Br)c2ncn(CC=C(C)C)c2c1,200
12,CSc1sc(C(=N)N)cc1S(=O)(=O)c1cc(Br)c2c(c1)ncn2CC=C(C)C,50
13,CSc1sc(C(=N)N)cc1S(=O)(=O)c1ccccc1,750
14,CSc1sc(C(=N)N)cc1S(=O)(=O)c1cc(Cl)c2c(c1)ncn2Cc1c(F)cccc1F,100
15,CSc1sc(C(=N)N)cc1S(=O)(=O)c1ccoc1C,1790

# Continued by falling Ki, values first:
row,Ki [nM],SMILES
1,11000,CSc1sc(C(=N)N)cc1S(=O)(=O)C(C)C
2,2240,CSc1sc(C(=N)N)cc1S(=O)(=O)c1cccs1
3,1880,CSc1sc(C(=N)N)cc1S(=O)(=O)c1nccn1C
4,580,CSc1sc(C(=N)N)cc1S(=O)(=O)c1ccc2c(c1)ncn2Cc1ccccn1
5,400,CSc1sc(C(=N)N)cc1S(=O)(=O)c1cc(Br)c2ncn(Cc3ccccc3)c2c1
6,400,CSc1sc(C(=N)N)cc1S(=O)(=O)c1cc(Br)c2nc[nH]c2c1
7,400,CSc1sc(C(=N)N)cc1S(=O)(=O)c1ccc2c(c1)ncn2Cc1ccccc1
8,380,CSc1sc(C(=N)N)cc1S(=O)(=O)c1cc(Br)c2c(c1)ncn2[C@H](C)c1ccccc1
9,330,CSc1sc(C(=N)N)cc1S(=O)(=O)c1cc(Br)c2ncn(C)c2c1
10,310,CSc1sc(C(=N)N)cc1S(=O)(=O)c1cc(Br)c2c(c1)ncn2-c1ccccc1
11,240,CSc1sc(C(=N)N)cc1S(=O)(=O)c1cc(Br)c2ncn(Cc3cc(F)ccc3F)c2c1
12,180,CSc1sc(C(=N)N)cc1S(=O)(=O)c1cc(Br)c2ncn(-c3ccccc3)c2c1
13,170,CSc1sc(C(=N)N)cc1S(=O)(=O)c1cc(Br)c2ncn(Cc3cc([N+](=O)[O-])ccc3F)c2c1
14,170,CSc1sc(C(=N)N)cc1S(=O)(=O)c1cc(Br)c2ncn(Cc3c(F)cccc3F)c2c1
15,100,CSc1sc(C(=N)N)cc1S(=O)(=O)c1cc(Cl)c2ncn(Cc3c(F)cccc3F)c2c1
16,40,CSc1sc(C(=N)N)cc1S(=O)(=O)c1cc(Br)c2c(c1)ncn2Cc1c(F)cccc1F
17,30,CSc1sc(C(=N)N)cc1S(=O)(=O)c1cc(Br)c2c(c1)ncn2Cc1ccccc1
18,30,CSc1sc(C(=N)N)cc1S(=O)(=O)c1cc(Br)c2c(c1)ncn2Cc1cc([N+](=O)[O-])ccc1F
19,10,CSc1sc(C(=N)N)cc1S(=O)(=O)c1cc(Br)c2c(c1)ncn2Cc1cc(F)ccc1F

# Target: Urokinase-type plasminogen activator (Homo sapiens, UniProt P00749)
# Test: Inhibition of uPA
row,Ki [nM],SMILES
1,> 10000,CSc1sc(C(=N)N)cc1S(=O)(=O)c1cc(Br)c2c(c1)ncn2Cc1cc(F)ccc1F

# Target: Tissue-type plasminogen activator (Homo sapiens, UniProt P00750)
# Test: Inhibition of tPA
# Chain of Tissue-type plasminogen activator (P00750 whole entry): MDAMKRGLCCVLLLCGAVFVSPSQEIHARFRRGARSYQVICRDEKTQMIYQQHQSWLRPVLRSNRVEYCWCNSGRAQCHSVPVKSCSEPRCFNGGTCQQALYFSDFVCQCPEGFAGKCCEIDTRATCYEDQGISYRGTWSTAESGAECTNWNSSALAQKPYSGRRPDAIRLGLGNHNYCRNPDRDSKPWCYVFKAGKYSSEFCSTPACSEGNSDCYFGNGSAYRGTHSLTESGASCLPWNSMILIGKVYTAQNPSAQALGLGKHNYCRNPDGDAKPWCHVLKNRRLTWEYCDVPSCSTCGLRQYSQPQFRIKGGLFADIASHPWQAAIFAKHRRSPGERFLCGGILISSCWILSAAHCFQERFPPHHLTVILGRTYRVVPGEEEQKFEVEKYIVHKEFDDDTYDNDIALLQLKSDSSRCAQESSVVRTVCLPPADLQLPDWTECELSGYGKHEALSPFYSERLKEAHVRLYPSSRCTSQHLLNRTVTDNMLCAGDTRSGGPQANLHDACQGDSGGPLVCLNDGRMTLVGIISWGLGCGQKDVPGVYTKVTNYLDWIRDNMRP
row,Ki [nM],SMILES
1,> 10000,CSc1sc(C(=N)N)cc1S(=O)(=O)c1cc(Br)c2c(c1)ncn2Cc1cc(F)ccc1F

# Target: Coagulation factor X (Homo sapiens, UniProt P00742)
# Test: Inhibition of F10a
# Chain of Coagulation factor X (P00742 41-179 limits assumed): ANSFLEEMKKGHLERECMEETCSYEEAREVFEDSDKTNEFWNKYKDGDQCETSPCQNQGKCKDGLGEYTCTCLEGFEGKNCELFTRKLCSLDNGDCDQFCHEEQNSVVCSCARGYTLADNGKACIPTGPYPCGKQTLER
# Chain of Coagulation factor X (P00742 235-488 limits assumed): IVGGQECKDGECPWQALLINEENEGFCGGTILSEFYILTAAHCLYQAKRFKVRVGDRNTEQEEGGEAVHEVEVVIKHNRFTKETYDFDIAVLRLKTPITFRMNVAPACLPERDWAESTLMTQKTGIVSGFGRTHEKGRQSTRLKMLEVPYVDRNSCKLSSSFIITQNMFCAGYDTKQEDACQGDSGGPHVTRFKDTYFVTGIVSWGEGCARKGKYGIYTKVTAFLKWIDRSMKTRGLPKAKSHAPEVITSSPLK
row,Ki [nM],SMILES
1,11400,CSc1sc(C(=N)N)cc1S(=O)(=O)c1cc(Br)c2c(c1)ncn2Cc1cc(F)ccc1F

# Target: Prothrombin (Homo sapiens, UniProt P00734)
# Test: Inhibition of thrombin
row,Ki [nM],SMILES
1,> 15000,CSc1sc(C(=N)N)cc1S(=O)(=O)c1cc(Br)c2c(c1)ncn2Cc1cc(F)ccc1F

# Target: Plasminogen (Homo sapiens, UniProt P00747)
# Test: Inhibition of plasmin
# Chain of Plasminogen (P00747 97-580 limits assumed): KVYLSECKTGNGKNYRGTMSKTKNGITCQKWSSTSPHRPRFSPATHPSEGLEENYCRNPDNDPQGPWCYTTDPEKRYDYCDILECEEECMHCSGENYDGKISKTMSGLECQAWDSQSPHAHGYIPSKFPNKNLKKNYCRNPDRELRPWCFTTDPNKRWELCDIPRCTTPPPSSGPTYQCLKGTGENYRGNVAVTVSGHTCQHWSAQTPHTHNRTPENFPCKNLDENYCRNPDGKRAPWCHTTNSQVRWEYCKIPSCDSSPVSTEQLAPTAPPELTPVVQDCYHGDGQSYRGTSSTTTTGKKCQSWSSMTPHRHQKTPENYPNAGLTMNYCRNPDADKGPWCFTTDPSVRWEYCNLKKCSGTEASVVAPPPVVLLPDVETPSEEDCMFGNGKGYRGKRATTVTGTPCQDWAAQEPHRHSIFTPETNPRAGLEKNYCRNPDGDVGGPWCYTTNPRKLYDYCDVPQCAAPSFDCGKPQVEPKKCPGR
# Chain of Plasminogen (P00747 581-810 limits assumed): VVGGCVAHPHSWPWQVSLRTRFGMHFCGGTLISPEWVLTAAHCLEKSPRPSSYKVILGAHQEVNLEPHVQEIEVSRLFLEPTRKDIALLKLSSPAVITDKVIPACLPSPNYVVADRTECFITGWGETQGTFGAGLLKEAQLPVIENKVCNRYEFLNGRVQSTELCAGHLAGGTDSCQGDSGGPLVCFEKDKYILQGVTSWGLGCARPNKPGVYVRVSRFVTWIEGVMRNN
row,Ki [nM],SMILES
1,> 13000,CSc1sc(C(=N)N)cc1S(=O)(=O)c1cc(Br)c2c(c1)ncn2Cc1cc(F)ccc1F

# Target: Trypsin (Homo sapiens, UniProt P07477+P07478+P35030)
# Test: Inhibition of trypsin
# Format: protein assay
row,Ki [nM],SMILES
1,1400,CSc1sc(C(=N)N)cc1S(=O)(=O)c1cc(Br)c2c(c1)ncn2Cc1cc(F)ccc1F
